Laboratory results from article PMC6691016, “Glycosylation influences activity, stability and immobilization of the feruloyl esterase 1a from Myceliophthora thermophila” (AMB Express, 2019).

Assays:
[1] = biological target: T1, M-Fae (MtFae1a produced in M. thermophila) (Thermothelomyces thermophilus, UniProt G2QND5); assay: continuous absorbance assay at […] nm, non-linear regression; format: biochemical; conditions: substrate inhibition constant; free enzyme, 100 mM sodium phosphate pH 7.0, 35 °C; 5% DMSO
T1 construct: gene Fae1a; mature (signal peptide, first 18 residues, removed); homologous over-production in M. thermophila C1; no tag stated; N-glycosylated at Asn117 and Asn179; calculated MW 29506 Da, 31 kDa on SDS-PAGE; homodimer only predicted

[2] = biological target: T2, P-Fae (MtFae1a produced in P. pastoris) (Thermothelomyces thermophilus, UniProt G2QND5); assay: as above; format: biochemical; conditions: substrate inhibition constant; free enzyme, 100 mM sodium phosphate pH 7.0, 35 °C; 5% DMSO
T2 construct: gene Fae1a; mature (signal peptide, first 18 residues, removed); secreted from Pichia pastoris GS115 (vector pPNic706); no tag stated; N-glycosylated at Asn117 and Asn179 with larger glycans; calculated MW 29506 Da, 33 kDa on SDS-PAGE; homodimer only predicted
T2 sequence (G2QND5 19-291): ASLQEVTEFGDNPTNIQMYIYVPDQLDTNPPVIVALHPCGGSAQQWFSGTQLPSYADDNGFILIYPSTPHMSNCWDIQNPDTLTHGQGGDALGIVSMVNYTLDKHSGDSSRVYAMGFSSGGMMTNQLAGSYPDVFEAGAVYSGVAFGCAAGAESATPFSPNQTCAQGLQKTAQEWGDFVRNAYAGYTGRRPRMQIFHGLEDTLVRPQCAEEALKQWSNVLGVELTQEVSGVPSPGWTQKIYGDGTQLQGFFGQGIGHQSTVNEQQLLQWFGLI

T1 sequence (G2QND5 19-291): as above

- Ksi [1]: 1.46 ± 0.29 mM
- Ksi [2]: 1.84 ± 0.28 mM
SMILES: COC(=O)/C=C/c1ccc(O)cc1 [MpCA, methyl p-coumarate]
